Results: the NIST ThermoML archive (doi:10.1016/j.jct.2014.05.016)

Assay: xn = mol fraction of the nth substance listed
Details: 100 kPa, Liquid; for viscosity: Concentric cylinders viscometry; for mass density: Vibrating tube method

C[n+]1ccn(CCO)c1.F[B-](F)(F)F [1-(2-hydroxyethyl)-3-methylimidazolium tetrafluoroborate] + CCCCn1cc[n+](C)c1.F[B-](F)(F)F
Details	mass density [kg/m3]	viscosity [mPa·s]
293.15 K, x1 = 0.1003	–	141.5
293.15 K, x1 = 0.101	1217.5	–
293.15 K, x1 = 0.2001	–	138.1
293.15 K, x1 = 0.201	1230.9	–
293.15 K, x1 = 0.2997	–	139.6
293.15 K, x1 = 0.3002	1245.7	–
293.15 K, x1 = 0.3999	–	140.6
293.15 K, x1 = 0.4006	1261.4	–
293.15 K, x1 = 0.4996	–	138.7
293.15 K, x1 = 0.5009	1276.1	–
293.15 K, x1 = 0.5991	1292.3	143.1
293.15 K, x1 = 0.6997	–	144.7
293.15 K, x1 = 0.7001	1310.8	–
293.15 K, x1 = 0.7999	–	147.1
293.15 K, x1 = 0.8	1326.3	–
293.15 K, x1 = 0.8995	1344.4	–
293.15 K, x1 = 0.8998	–	152.3
293.15 K, x1 = 1	1362.4	153.6
298.15 K, x1 = 0.1003	–	107.8
298.15 K, x1 = 0.101	1214	–
298.15 K, x1 = 0.2001	–	105.3
298.15 K, x1 = 0.201	1227.4	–
298.15 K, x1 = 0.2997	–	106.6
298.15 K, x1 = 0.3002	1242	–
298.15 K, x1 = 0.3999	–	107.4
298.15 K, x1 = 0.4006	1257.9	–
298.15 K, x1 = 0.4996	–	105.4
298.15 K, x1 = 0.5009	1272.5	–
298.15 K, x1 = 0.5991	1288.6	108.3
298.15 K, x1 = 0.6997	–	109.3
298.15 K, x1 = 0.7001	1307.6	–
298.15 K, x1 = 0.7999	–	111.4
298.15 K, x1 = 0.8	1322.5	–
298.15 K, x1 = 0.8995	1340.6	–
298.15 K, x1 = 0.8998	–	114.1
298.15 K, x1 = 1	1358.7	115.1
303.15 K, x1 = 0.1003	–	83.64
303.15 K, x1 = 0.101	1210.4	–
303.15 K, x1 = 0.2001	–	81.83
303.15 K, x1 = 0.201	1223.9	–
303.15 K, x1 = 0.2997	–	82.64
303.15 K, x1 = 0.3002	1238.5	–
303.15 K, x1 = 0.3999	–	83.2
303.15 K, x1 = 0.4006	1254.3	–
303.15 K, x1 = 0.4996	–	81.76
303.15 K, x1 = 0.5009	1268.9	–
303.15 K, x1 = 0.5991	1284.9	83.78
303.15 K, x1 = 0.6997	–	84.42
303.15 K, x1 = 0.7001	1304.2	–
303.15 K, x1 = 0.7999	–	85.38
303.15 K, x1 = 0.8	1318.9	–
303.15 K, x1 = 0.8995	1336.9	–
303.15 K, x1 = 0.8998	–	87.51
303.15 K, x1 = 1	1354.8	87.98
308.15 K, x1 = 0.1003	–	66.1
308.15 K, x1 = 0.101	1206.9	–
308.15 K, x1 = 0.2001	–	64.77
308.15 K, x1 = 0.201	1220.5	–
308.15 K, x1 = 0.2997	–	65.41
308.15 K, x1 = 0.3002	1234.9	–
308.15 K, x1 = 0.3999	–	65.73
308.15 K, x1 = 0.4006	1250.7	–
308.15 K, x1 = 0.4996	–	64.71
308.15 K, x1 = 0.5009	1265.2	–
308.15 K, x1 = 0.5991	1281.3	66.04
308.15 K, x1 = 0.6997	–	66.38
308.15 K, x1 = 0.7001	1300.8	–
308.15 K, x1 = 0.7999	–	67.14
308.15 K, x1 = 0.8	1315.2	–
308.15 K, x1 = 0.8995	1333.1	–
308.15 K, x1 = 0.8998	–	68.51
308.15 K, x1 = 1	1351.2	68.59
313.15 K, x1 = 0.1003	–	53.11
313.15 K, x1 = 0.101	1203.3	–
313.15 K, x1 = 0.2001	–	52.17
313.15 K, x1 = 0.201	1216.9	–
313.15 K, x1 = 0.2997	–	52.58
313.15 K, x1 = 0.3002	1231.3	–
313.15 K, x1 = 0.3999	–	52.83
313.15 K, x1 = 0.4006	1247.1	–
313.15 K, x1 = 0.4996	–	51.96
313.15 K, x1 = 0.5009	1261.6	–
313.15 K, x1 = 0.5991	1277.7	52.99
313.15 K, x1 = 0.6997	–	53.19
313.15 K, x1 = 0.7001	1297.3	–
313.15 K, x1 = 0.7999	–	53.69
313.15 K, x1 = 0.8	1311.5	–
313.15 K, x1 = 0.8995	1329.4	–
313.15 K, x1 = 0.8998	–	54.68
313.15 K, x1 = 1	1347.4	54.81
318.15 K, x1 = 0.1003	–	43.44
318.15 K, x1 = 0.2001	–	42.58
318.15 K, x1 = 0.2997	–	42.92
318.15 K, x1 = 0.3999	–	43.11
318.15 K, x1 = 0.4996	–	42.41
318.15 K, x1 = 0.5991	–	43.22
318.15 K, x1 = 0.6997	–	43.31
318.15 K, x1 = 0.7999	–	43.66
318.15 K, x1 = 0.8998	–	44.39
318.15 K, x1 = 1	–	44.44
